45 molecules from patent US11643417B2, “Tetrahydrobenzofurodiazepinone compound and pharmaceutical use thereof” (priority 2020, dated 2023) can be followed below.

SMILES strings stand for the structures.

Chain of human Pim-1 (P11309 whole entry): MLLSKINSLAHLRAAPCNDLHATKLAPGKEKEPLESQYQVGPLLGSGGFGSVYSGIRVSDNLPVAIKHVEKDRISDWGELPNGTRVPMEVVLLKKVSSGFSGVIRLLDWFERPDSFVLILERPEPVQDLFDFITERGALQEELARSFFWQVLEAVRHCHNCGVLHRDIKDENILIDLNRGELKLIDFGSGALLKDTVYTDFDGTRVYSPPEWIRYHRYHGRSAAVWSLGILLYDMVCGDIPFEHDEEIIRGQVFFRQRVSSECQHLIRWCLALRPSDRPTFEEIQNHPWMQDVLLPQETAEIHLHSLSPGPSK

The first assay addresses human Pim-1 (Homo sapiens (Human), UniProt P11309). Nature of the assay: biochemical. Type of assay: biochemical. The conditions noted are these: Ki converted from IC50; purified human Pim-1, Pim2tide substrate, ADP-Glo; read-out: hPim1 Ki. As to the method:
The human Pim-1 inhibitory activity of the test compounds was evaluated as follows.
(1) Purification of Human Pim-1
DNA fragment in which a His-Tag sequence and a translation termination sequence are added to the 3′-end of human Pim-1 translation sequence was amplified by PCR (Polymerase Chain Reaction), using human Pim-1 gene-inserted plasmid DNA (Kazusa DNA Laboratory, model number FXC11400) as a template. The amplified DNA fragment was fused with pGEx-6P-1 (GE Healthcare Japan, model number 27-4597-1) digested with BamHI and EcoRI using In-Fusion HD Cloning Kit (Takara Bio, model number 639649). […] The base sequence of Pim-1 cloned into vector was determined by Dye Terminator method using BigDye Terminator v3.1 Cycle Sequencing Kit (Applied Biosystems, model number 4337456). […] Escherichia coli BL21 (DE3) (Merck KGaA, model number 69449-4) transformed with human Pim-1-expressed plasmid DNA was cultured in 2×YT medium (Becton Dickinson, model number 2404020) at 30° C., until the optical concentration at 620 nm (OD620) reached 0.6, and then cultured overnight at 20° C. in the presence of 0.5 mmol/L isopropyl b-D-1-thiogalactopyranoside. After the completion of so the culture, the cells were collected and suspended in Homogenate Buffer (50 mmol/L Tris-HCl (pH 7.5), 500 mmol/L NaCl, 1% Tween20, complete, EDTA-free (Roche, model number 1873580)), and the suspended cells were lysed by passing through a microfluidizer M-110H (Mizuho Kogyo Co., Ltd.). The lysate was centrifuged at 10,100×g for 10 minutes, 4° C., and the supernatant was filtered through MILLEX-HV Filter (0.45 μm) (Millipore, SLHV033RS) to remove the cell residues. The filtrate was loaded onto complete His-Tag Purification Resin (Roche Diagnostics, model number 05 893 682 0.01). The column was washed with Equilibration Buffer-1 (50 mmol/L Tris-HCl (pH 7.5), 500 mmol/L NaCl, 1% Tween 20) containing 5 mmol/L Imidazole, followed by Equilibration Buffer-1 containing 50 mmol/L Imidazole, the human Pim-1 to which GST-Tag derived from pGEx-6P-1 was eluted with Equilibration Buffer-1 containing 150 mmol/L imidazole. […] The protease reaction was carried out by stirring overnight at 4° C., and the human Pim-1 in which the GST-Tag sequence was cleaved was eluted. The eluate was loaded onto a gel filtration column (Superdex-200 […] (GE Healthcare, model number 17-5175-01)) equilibrated with Equilibration Buffer-3 (50 mmol/L Tris-HCl (pH 7.5), 500 mmol/L NaCl, 0.05% Tween20, 0.5 mmol/L EDTA, 2 mmol/L DTT, 10% Glycerol), and eluted. The eluate was used as a human Pim-1 purified fraction.
The protein concentration of the human Pim-1 purified fraction was measured with Pierce 660 nm Protein Assay Reagent (Thermo Fisher Scientific, model number 22660). The purified fraction was rapidly frozen in liquid nitrogen, and then stored at −80° C. The His-Tag-added human Pim-1 was detected by Western blotting using a mouse anti-His monoclonal antibody (WAKO, model number 011-23091).
(2) Evaluation of Human Pim-1 Inhibitory Activity
The calculation of the Pim-1 inhibitory activity of the compound was performed using the following solution according to the protocol attached to ADP-Glo Kinase Assay (cat. V9102, Promega). The purified enzyme of human Pim-1 described above was used.
(i) Preparation of Solution
The kinase buffer solution (50 mmol/L HEPES (pH 7.5), 5 mmol/L MgCl2, 1 mmol/L DTT, 0.05% BSA) was prepared by dissolving HEPES (Jena Bioscience), MgCl2 (Sigma-Aldrich), DTT (Sigma-Aldrich) and BSA (Sigma-Aldrich) in purified water.
The ATP solution (288 μmol/L) was prepared by dissolving 100 mmol/L ATP (Promega) in the kinase buffer solution.
(In general: In ADP-Glo the light output rises with the ADP produced.)
Turning to `O=C(OC[C@@H]1CO[C@H](CCN2CCNC(=O)c3oc4ccc(C(F)(F)F)cc4c32)CO1)c1ccccc1` [Example 69], the Ki amounted to 18.5 nM.

Consider `COC[C@]1(OC)CC[C@@H](CCN2CCN(C)C(=O)c3oc4ccc(C(F)(F)F)cc4c32)CC1` [Example 2-05], for which the inhibition constant (Ki) was found to be 13.2 nM.

In the case of `O=C1NCCN(CC(F)(F)C2CC(O)(C(F)(F)F)CCO2)c2c1oc1ccc(C(F)(F)F)cc21` (stereo not drawn) [Example 19], the inhibition constant (Ki) turned out to be 0.101 nM.

For `CS(=O)(=O)C[C@@H]1CO[C@@H](CCN2CC3(CC3)NC(=O)c3oc4ccc(C(F)(F)F)cc4c32)CO1` [Example 159], the inhibitory constant (Ki) stood at 0.164 nM.

As to `O=C1NCCN(CCC2CCC(O)(CF)CC2)c2c1oc1ccc(C(F)(F)F)cc21` (stereo not drawn) [Example 144], the inhibitory constant (Ki) was found to be 0.801 nM.

`CC1(O)CCC(CCN2CC3(CC3)NC(=O)c3oc4ccc(C(F)(F)F)cc4c32)CC1` (single isomer, unassigned) [Example 128]: the Ki amounted to 0.031 nM.

Take `O=C1NCCN(CC(F)(F)C2CC3(CCO2)OCCO3)c2c1oc1ccc(C(F)(F)F)cc21` (racemic) [Example 46]: the inhibition constant Ki came to 0.0715 nM.

`CC(C)(O)C1CCOC(C(F)(F)CN2CCNC(=O)c3oc4ccc(C(F)(F)F)cc4c32)C1` (stereo not drawn) [Example 49]: the inhibition constant Ki is 0.0389 nM.

Turning to `C[C@H]1CO[C@H](CCN2CCNC(=O)c3oc4ccc(C(F)(F)F)cc4c32)CO1` [Example 63], the Ki was 0.452 nM.

`O=C1NCCN(CCC2CC3(COC3)C2)c2c1oc1ccc(C(F)(F)F)cc21` [Example 82]: the inhibitory constant (Ki) turned out to be 2.06 nM.

Regarding `O=C1NC2(CC2)CN(CC[C@@H]2CO[C@@H](CO)CO2)c2c1oc1ccc(C(F)(F)F)cc21` [Example 152], the Ki worked out at 0.0929 nM.

On to `CC1(O)CCC(C(F)(F)CN2CCNC(=O)c3oc4ccc(C(F)(F)F)cc4c32)CC1` (single isomer, unassigned) [Example 148], for which the Ki amounted to 0.114 nM.

Consider `C[C@H]1CO[C@@H](CCN2CCNC(=O)c3oc4ccc(C(F)(F)F)cc4c32)CO1` [Example 43], for which the Ki came out at 0.741 nM.

In the case of `CC1(C(=O)O)CCC(CCN2CCNC(=O)c3oc4ccc(C(F)(F)F)cc4c32)CC1` (stereo not drawn) [Example 93], the Ki is 5.15 nM.

Regarding `CS(=O)(=O)CC1(O)CCC(CCN2CCNC(=O)c3oc4ccc(C(F)(F)F)cc4c32)CC1` (stereo not drawn) [Example 122], the Ki is 0.532 nM.

In the case of `O=C1NCCN(CC(F)(F)[C@H]2CO[C@H](CO)CO2)c2c1oc1ccc(C(F)(F)F)cc21` [Example 95, 1-(2,2-difluoro-2-((2R,5R)-5-(hydroxymethyl)-1,4-dioxan-2-yl)ethyl)-9-(trifluoromethyl)-1,2,3,4-tetrahydro-5H-benzofuro[3,2-e][1,4]diazepin-5-one], the Ki worked out at 0.0443 nM.

For the molecule `CS(=O)(=O)C[C@H]1CO[C@H](CCN2CC3(CC3)NC(=O)c3oc4ccc(C(F)(F)F)cc4c32)CO1` [Example 161], the Ki stood at 0.188 nM.

Turning to `O=C1NCCN(CC[C@H]2CC[C@](O)(C(F)(F)F)CC2)c2c1oc1ccc(C(F)(F)F)cc21` [Example 85], the Ki amounted to 4.08 nM.

Turning to `O=C1NCCN(CC[C@H]2CC[C@@H](O)CC2)c2c1oc1ccc(C(F)(F)F)cc21` [Example 83], the Ki worked out at 0.762 nM.

As for `C[C@@H]1CO[C@H](CCN2CCNC(=O)c3oc4ccc(C(F)(F)F)cc4c32)CO1` [Example 64], the Ki stood at 0.263 nM.

With `O=C1NC2(CC2)CN(CCC2CCC(O)CC2)c2c1oc1ccc(C(F)(F)F)cc21` (stereo not drawn) [Example 126], the Ki came to 0.464 nM.

Regarding `O=C1NC2(CC2)CN(CC(F)(F)C2CCS(=O)(=O)CC2)c2c1oc1ccc(C(F)(F)F)cc21` [Example 160], the Ki was found to be 0.0982 nM.

For `COC(C1CC(O)(CO)C1)C1(CN2CCNC(=O)c3oc4ccc(C(F)(F)F)cc4c32)CC1` (racemic) [Example 23], the Ki is 0.805 nM.

As to `O=C(OC[C@H]1CO[C@H](CCN2CCNC(=O)c3oc4ccc(C(F)(F)F)cc4c32)CO1)c1ccccc1` [Example 73], the Ki was found to be 4.74 nM.

For `O=C1NCCN(CC(F)(F)C2CCC(CO)CC2)c2c1oc1ccc(C(F)(F)F)cc21` (stereo not drawn) [Example 138], the Ki was 0.0151 nM.

On to `O=C1NCCN(CC(F)(F)[C@H]2CC[C@H](O)CC2)c2c1oc1ccc(C(F)(F)F)cc21` [Example 106, 1-(2,2-difluoro-2-((1r,4r)-4-hydroxycyclohexyl)ethyl)-9-(trifluoromethyl)-1,2,3,4-tetrahydro-5H-benzofuro[3,2-e][1,4]diazepin-5-one], for which the Ki stood at 0.0409 nM.

On to `O=C1NCCN(CC(F)(F)C2CC(CO)CCO2)c2c1oc1ccc(C(F)(F)F)cc21` (stereo not drawn) [Example 47], for which the inhibitory constant (Ki) amounted to 0.0246 nM.

On to `N#CCC1COCC(CCN2CCNC(=O)c3oc4ccc(C(F)(F)F)cc4c32)O1` (racemic) [Example 140], for which the Ki amounted to 5.8 nM.

Consider `O=C1NCCN(CC[C@@H]2CO[C@@H](CO)CO2)c2c1oc1ccc(C(F)(F)F)cc21` [Example 74], for which the Ki came out at 0.738 nM.

For the molecule `O=C1NCCN(CC[C@H]2CO[C@@H](CO)CO2)c2c1oc1ccc(C(F)(F)F)cc21` [Example 42], the inhibitory constant (Ki) turned out to be 0.567 nM.

With `CN1CCN(CC[C@H]2CC[C@](O)(CO)CC2)c2c(oc3ccc(C(F)(F)F)cc23)C1=O` [Example 2-03], the Ki was 0.414 nM.

Regarding `CN1CCN(CC(F)(F)C2CC(O)(CO)CCO2)c2c(oc3ccc(C(F)(F)F)cc23)C1=O` (stereo not drawn) [Example 21], the inhibitory constant (Ki) was 0.33 nM.

As to `O=C1NC2(CC2)CN(CC[C@H]2CO[C@H](CO)CO2)c2c1oc1ccc(C(F)(F)F)cc21` [Example 155], the Ki came to 0.221 nM.

Take `C[C@]1(O)CC[C@H](CCN2CCNC(=O)c3oc4ccc(C(F)(F)F)cc4c32)CC1` [Example 80]: the Ki was 0.205 nM.

On to `N#CCC1COCC(CCN2CCNC(=O)c3oc4ccc(C(F)(F)F)cc4c32)O1` (racemic) [Example 139], for which the Ki is 3.69 nM.

Turning to `O=C1NCCN(CCC2CC(O)CCO2)c2c1oc1ccc(C(F)(F)F)cc21` (stereo not drawn) [Example 1], the Ki was determined as 0.697 nM.

Consider `O=C1NCCN(CC(F)(F)C2CC(O)C2)c2c1oc1ccc(C(F)(F)F)cc21` (stereo not drawn) [Example 151], for which the Ki was determined as 0.957 nM.

For `N#CCC1(O)CCC(CCN2CCNC(=O)c3oc4ccc(C(F)(F)F)cc4c32)CC1` (stereo not drawn) [Example 121], the inhibition constant (Ki) was 0.705 nM.

As to `N#CC[C@H]1CO[C@H](CCN2CCNC(=O)c3oc4ccc(C(F)(F)F)cc4c32)CO1` (racemic) [Example 129], the inhibition constant Ki is 1.18 nM.

For `O=C1NCCN(CC(F)(F)C2CCOCC2)c2c1oc1ccc(C(F)(F)F)cc21` [Example 65], the Ki came to 0.12 nM.

Consider `O=C1NCCN(CC(F)(F)C2CC(O)(C(F)F)CCO2)c2c1oc1ccc(C(F)(F)F)cc21` (single isomer, unassigned) [Example 53], for which the inhibitory constant (Ki) came out at 0.0921 nM.

Still in this assay, the particulars now being: hPim1 Ki (nM), Ki converted from IC50; purified human Pim-1, Pim2tide substrate, ADP-Glo.
Molecule `O=C1NCCN(CCC2CCC(C3(O)CC3)CC2)c2c1oc1ccc(C(F)(F)F)cc21` (stereo not drawn) [Example 99] gave a Ki of 0.0764 nM.

With `O=C1NC2(CC2)CN(CCC2CCC(O)(CO)CC2)c2c1oc1ccc(C(F)(F)F)cc21` (stereo not drawn) [Example 116], the Ki stood at 0.0092 nM.

On to `[2H]C1(O)CCC(CCN2CCNC(=O)c3oc4ccc(C(F)(F)F)cc4c32)CC1` (stereo not drawn) [Example 92], for which the inhibition constant Ki amounted to 0.707 nM.

`[2H]C1(O)CCC(CCN2CCNC(=O)c3oc4ccc(C(F)(F)F)cc4c32)CC1` (relative stereo) [Example 91] had an inhibitory constant (Ki) of 0.198 nM.

One may read the Ki as the dissociation constant of the complex between target and ligand, obtained from inhibition or displacement.
